Results published in patent US20260152779A1, “GENETICALLY ENGINEERED FUMONISIN SENSITIVE YEAST” (FFOQSI GMBH, priority 2022, published 2026).
Where two headings read alike, the source gives them in different places.

Tests used:
YPH500 = assay: paper disk inhibition zone assay, wild-type strain YPH500; type: cell-based, Saccharomyces cerevisiae
wild type yeast = assay: growth inhibition of wild type yeast by FB1; type: cell-based, Saccharomyces cerevisiae; conditions: at a concentration of 1000 μM FB1 or more
Description: Growth rates and growth inhibition can be determined by any method well known in the art, such as, but not limited to, determining cell number, using e.g. a hemocytometer, determining cell viability, e.g. using methylene blue staining, or determining relative growth calculated as the resultant optical density ratio of toxin treated cultures to untreated controls. Also yeast dry weight can be determined or conductance change can be measured during yeast growth, employing direct and indirect methods.

YRU94ML = assay: spotting on YPD agar plates with crude FB1, strain YRU94ML; type: cell-based, Saccharomyces cerevisiae; conditions: crude fumonisin stock (FB1+FB2+FB3) containing >70% FB1, 30° C., 5 days
Procedure: (§1) In a further setting, the sensitive yeast strains YRU74, YRU94ML and YTKT33 were grown in YPD (1% yeast extract, 2% peptone, 2% glucose) overnight alongside the original resistant YPH500 strain. The next day, they were rediluted to an OD600 of 0.1. After reaching exponential growth (>0.3) they were diluted to an OD of 0.1 and diluted further (1:10 and 1:100) for spottings on YPD agar plates alongside containing different concentrations of the crude fumonisin stock (FB1+FB2+FB3, measured via LC-MS/MS) containing >70% FB1. The concentrations used for the prepared FB1 plates were calculated based on the measured FB1. 3 μl of each strain/dilution was pipetted onto the plates and left to grow at 30° C. for 5 days. The photos of these plates are shown above. […] Three different dilutions of each strain were spotted on every plate. […] Both YRU94ML and YTKT33 growth is inhibited at a concentration of 250 μM FB1.

YTKT33 [1] = assay: spotting on YPD agar plates with crude FB1, strain YTKT33; type: cell-based, Saccharomyces cerevisiae; conditions: crude fumonisin stock (FB1+FB2+FB3) containing >70% FB1, 30° C., 5 days
Procedure: as §1

YTKT33 [2] = assay: spotting on SC-URA agar plates with FB1, strain YTKT33; type: cell-based, Saccharomyces cerevisiae; conditions: SC-URA agar plates, 87,88% pure FB1, empty pYes2-PTEF1 vector, 30° C., 5 days
Procedure: In a further setting, sensitive yeast strains YRU74, YRU94ML, YTKT33 and the original yeast strain YPH500 were transformed with the empty pYes2-PTEF1 vector containing the marker URA3, so that they could grow on Synthetic Complete media lacking uracil (SC-URA). They were grown in SC-URA overnight and rediluted to an OD600 of 0.1 in the morning. After reaching exponential growth (OD600>0.3), they were diluted again for spottings on plates containing 87,88% pure FB1. 3 μl of each strain/dilution was pipetted onto the plates and left to grow at 30° C. for 5 days. The photos of these plates are shown above. […] Three spots were spotted on each plate for every strain.

Arabidopsis = conditions: bioassay e.g. 10 days; cited from earlier work
[3] = tested on: brine shrimp (Artemia salina); conditions: cited from earlier work
primary rat hepatocytes = conditions: read-out: acute cytotoxicity (IC50 values); cited from earlier work
human HepG2 cells = conditions: read-out: acute cytotoxicity (IC50); cited from earlier work
YTKT33 [4] = assay: FB1 resistance conferred by candidate genes expressed in YTKT33 on SC-URA FB1 plates; type: cell-based, Saccharomyces cerevisiae; conditions: SC-URA plates with different FB1 concentrations, spottings OD600 0.1, 0.01, 0.001
Description: The plasmids described by Janevska et al., 2020, were kindly provided by Dr. Vito Valiante. Plasmid pYes2-PTEF1 (=empty vector, TEF1 promoter) was used to express different genes assumed to confer resistance against FB1. Candidate genes were coned behind the TEF1 promoter into that plasmid and subsequently transformed into the sensitive yeast strain YTKT33 for testing.
YOR1 (with endogenous promoter on an episomal (multicopy 2 μm) plasmid) and FvCER1 (positive control, resistance conferring ceramide synthase from Fusarium verticillioides) were used as controls. Sphingopyxis sp.

For fumonisin, which “development of an inhibition zone” value (YPH500) is on record?
Its value is “did not result in the development of an inhibition zone”.

With Fumonisin B1 [FB1] as the molecule, how does the “growth inhibition of wild type yeast” value (wild type yeast) read?
The value was “does not show significant growth inhibition”.

And the “FB1 concentration at which growth is inhibited” value (YRU94ML)?
Its value is 250 µM.

What about the “FB1 concentration at which growth is inhibited” value (YTKT33 [1]) of the same molecule?
The value was 250 µM.

What about the “FB1 concentration at which growth is inhibited” value (YTKT33 [2]) of the same molecule?
Its value is ~100 µM.

What about the “FB1 concentration at which seed germination and root development is already strongly inhibited” value (Arabidopsis) of the same molecule?
Its value is 1 µM.

What about the IC50 ([3]; 24 h incubation) of the same molecule?
The IC50 was ~10 µM.

And the IC50 ([3]; 48 h incubation)?
Its IC50 is 1.7 µM.

And the IC50 (primary rat hepatocytes)?
The IC50 was 2000 µM.

What about the IC50 (human HepG2 cells) of the same molecule?
Its IC50 is 399 µM.

B1: YOR1: yeast ABC transporter gene with endogenous promoter on an episomal multicopy plasmid, used as control (protein, UniProt P53049 1-1477, looked up)
Oligomycin resistance …: MTITVGDAVSETELENKSQNVVLSPKASASSDISTDVDKDTSSSWDDKSLLPTGEYIVDRNKPQTYLNSDDIEKVTESDIFPQKRLFSFLHSKKIPEVPQTDDERKIYPLFHTNIISNMFFWWVLPILRVGYKRTIQPNDLFKMDPRMSIETLYDDFEKNMIYYFEKTRKKYRKRHPEATEEEVMENAKLPKHTVLRALLFTFKKQYFMSIVFAILANCTSGFNPMITKRLIEFVEEKAIFHSMHVNKGIGYAIGACLMMFVNGLTFNHFFHTSQLTGVQAKSILTKAAMKKMFNASNYARHCFPNGKVTSFVTTDLARIEFALSFQPFLAGFPAILAICIVLLIVNLGPIALVGIGIFFGGFFISLFAFKLILGFRIAANIFTDARVTMMREVLNNIKMIKYYTWEDAYEKNIQDIRTKEISKVRKMQLSRNFLIAMAMSLPSIASLVTFLAMYKVNKGGRQPGNIFASLSLFQVLSLQMFFLPIAIGTGIDMIIGLGRLQSLLEAPEDDPNQMIEMKPSPGFDPKLALKMTHCSFEWEDYELNDAIEEAKGEAKDEGKKNKKKRKDTWGKPSASTNKAKRLDNMLKDRDGPEDLEKTSFRGFKDLNFDIKKGEFIMITGPIGTGKSSLLNAMAGSMRKTDGKVEVNGDLLMCGYPWIQNASVRDNIIFGSPFNKEKYDEVVRVCSLKADLDILPAGDMTEIGERGITLSGGQKARINLARSVYKKKDIYLFDDVLSAVDSRVGKHIMDECLTGMLANKTRILATHQLSLIERASRVIVLGTDGQVDIGTVDELKARNQTLINLLQFSSQNSEKEDEEQEAVVAGELGQLKYESEVKELTELKKKATEMSQTANSGKIVADGHTSSKEERAVNSISLKIYREYIKAAVGKWGFIALPLYAILVVGTTFCSLFSSVWLSYWTENKFKNRPPSFYMGLYSFFVFAAFIFMNGQFTILCAMGIMASKWLNLRAVKRILHTPMSYIDTTPLGRILNRFTKDTDSLDNELTESLRLMTSQFANIVGVCVMCIVYLPWFAIAIPFLLVIFVLIADHYQSSGREIKRLEAVQRSFVYNNLNEVLGGMDTIKAYRSQERFLAKSDFLINKMNEAGYLVVVLQRWVGIFLDMVAIAFALIITLLCVTRAFPISAASVGVLLTYVLQLPGLLNTILRAMTQTENDMNSAERLVTYATELPLEASYRKPEMTPPESWPSMGEIIFENVDFAYRPGLPIVLKNLNLNIKSGEKIGICGRTGAGKSTIMSALYRLNELTAGKILIDNVDISQLGLFDLRRKLAIIPQDPVLFRGTIRKNLDPFNERTDDELWDALVRGGAIAKDDLPEVKLQKPDENGTHGKMHKFHLDQAVEEEGSNFSLGERQLLALTRALVRQSKILILDEATSSVDYETDGKIQTRIVEEFGDCTILCIAHRLKTIVNYDRILVLEKGEVAEFDTPWTLFSQEDSIFRSMCSRSGIVENDFENRS
With B1 as the molecule, how does the “resistance to FB1 conferred by the expressed gene” value (YTKT33 [4]) read?
Its value is “weak resistance”.
